This assay addresses T1, glutathione peroxidase 4 (hGPX4-C) (Homo sapiens, UniProt P36969, U73C).
T1 construct: gene GPX4; human cytosolic GPX4 (c-GPX4), his-tagged, expressed in E. coli M15
The assay is described as follows: activation of purified GPX4 in a glutathione reductase/NADPH coupled assay; Tm shift about […]°C; D23A mutant loses activation; CETSA in HEK293T cells. To be noted: read-out: % (maximum activation). Type of assay: biochemical.

T1 sequence (P36969 other isoform, or with tags, fused parts or gaps U73C): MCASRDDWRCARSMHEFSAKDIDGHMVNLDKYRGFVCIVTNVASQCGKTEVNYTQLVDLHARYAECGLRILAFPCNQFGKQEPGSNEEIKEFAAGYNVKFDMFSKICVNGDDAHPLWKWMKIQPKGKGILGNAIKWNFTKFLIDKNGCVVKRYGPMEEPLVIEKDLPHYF

In the case of `NC1=NC2(O)C(=O)c3ccccc3C2(O)N1` (stereo not shown) [compound 102, PKUMDL-LC-102], the Emax was 236%.

Values taken from publication PMC6178849, “Activation of Glutathione Peroxidase 4 as a Novel Anti-inflammatory Strategy” (Frontiers in Pharmacology, 2018).
